Patent US20100179093A1, “Neoropeptide-2-Receptor (Y-2R) Agonists” (priority 2008, published 2010)

What was measured:
Format in all cases: cell-based
[1] = target: T1, Y1R (Homo sapiens, UniProt P25929); experiment: CaFlux Assay (FLIPR), Y1R
T1 sequence (P25929 1-384): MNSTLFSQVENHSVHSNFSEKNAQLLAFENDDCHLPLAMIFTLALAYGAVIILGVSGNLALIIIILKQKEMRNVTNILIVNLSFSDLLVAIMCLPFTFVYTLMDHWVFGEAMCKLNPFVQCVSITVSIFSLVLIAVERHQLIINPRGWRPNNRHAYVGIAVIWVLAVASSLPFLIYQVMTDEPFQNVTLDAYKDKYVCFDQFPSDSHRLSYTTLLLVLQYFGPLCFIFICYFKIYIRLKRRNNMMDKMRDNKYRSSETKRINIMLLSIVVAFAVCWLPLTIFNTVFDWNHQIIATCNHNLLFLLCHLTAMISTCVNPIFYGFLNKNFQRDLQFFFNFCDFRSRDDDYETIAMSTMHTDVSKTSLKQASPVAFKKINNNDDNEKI

[2] = target: Y4R (Homo sapiens, UniProt P50391); experiment: CaFlux Assay (FLIPR), Y4R
[3] = target: T2, Y5R (Homo sapiens, UniProt Q15761); experiment: CaFlux Assay (FLIPR), Y5R; conditions: for Emax: read-out: Y5R FLIPR, percentage in parentheses under the EC50;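 as to Emax: percent of the maximal response of the positive control agonist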
T2 sequence (Q15761 1-445): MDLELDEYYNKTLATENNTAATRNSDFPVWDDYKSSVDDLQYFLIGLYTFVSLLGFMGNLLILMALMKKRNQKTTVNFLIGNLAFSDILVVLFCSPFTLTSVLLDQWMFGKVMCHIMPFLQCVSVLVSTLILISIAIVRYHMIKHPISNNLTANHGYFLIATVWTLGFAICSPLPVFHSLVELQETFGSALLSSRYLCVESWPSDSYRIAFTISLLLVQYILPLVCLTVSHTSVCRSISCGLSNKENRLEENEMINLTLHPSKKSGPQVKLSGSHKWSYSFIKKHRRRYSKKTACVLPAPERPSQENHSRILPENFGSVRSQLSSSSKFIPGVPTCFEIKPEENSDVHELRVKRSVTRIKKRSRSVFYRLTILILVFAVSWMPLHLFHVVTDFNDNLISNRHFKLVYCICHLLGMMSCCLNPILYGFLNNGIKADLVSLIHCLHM

[4] = target: T3, hNPY2R (Homo sapiens, UniProt P49146); experiment: cAMP Agonist Assay, HEK293/hNPY2R cells; set-up: expressed in transfected cells; host or cells: HEK293/hNPY2R (G418 selection)
T3 sequence (P49146 1-381): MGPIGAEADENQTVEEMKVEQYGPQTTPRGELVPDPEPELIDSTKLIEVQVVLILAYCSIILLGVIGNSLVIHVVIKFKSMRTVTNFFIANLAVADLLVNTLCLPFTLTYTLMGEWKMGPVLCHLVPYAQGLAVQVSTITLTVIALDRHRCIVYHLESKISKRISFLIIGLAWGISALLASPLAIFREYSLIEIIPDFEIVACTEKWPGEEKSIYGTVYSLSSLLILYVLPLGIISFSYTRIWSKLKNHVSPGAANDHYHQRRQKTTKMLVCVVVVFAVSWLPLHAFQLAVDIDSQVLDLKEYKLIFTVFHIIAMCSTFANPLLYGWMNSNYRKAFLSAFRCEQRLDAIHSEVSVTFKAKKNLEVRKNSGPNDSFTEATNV
Method: On the first day, medium was discarded, and the monolayer cells were washed with 10 mL PBS per flask (T225). […] The flask was gently tapped and the cell suspension was pooled. Each flask was rinsed with 10 mL plating medium and centrifuged at 1000 rpm for 5 min. The suspension was pooled and counted. The suspension was resuspended in plating medium at a density of 2.0×10^5 cells/mL for HEK293/hNPY2R. 50 microliters of cells (HEK293/hNPY2R-10,000 cells/well) were transferred into the 384-well plate using Multi-drop dispenser. The plates were incubated at 37° C. overnight. […] The media and reagents were allowed to come to room temperature. Before the dilutions were prepared, the stock solution of stimulating compound in dimethyl sulphoxide (DMSO, Sigma, cat #D2650) was allowed to warm up to 32 C for 5-10 min. […] The cell medium was tapped off with a gentle inversion of the cell plate on a paper towel. 50 μL of stimulation medium was placed per well (each concentration done in four replicates). The plates were incubated at room temperature for 30 min, and the cells were checked under a microscope for toxicity. After 30 minutes of treatment, the stimulation media was discarded and 50 mL/well of Assay Lysis Buffer (provided in the Tropix kit) was added. The plates were incubated for 45 min@37° C. 20 μL of the lysate was transferred from stimulation plates into the pre-coated antibody plates (384-well) from the Tropix kit. 10 μL of AP conjugate and 20 μL of anti-cAMP antibody was added. The plates were incubated at room temperature while shaking for 1 hour. The plates were then washed 5 times with Wash Buffer, 70 μL per well for each wash. The plates were tapped to dry. 30 μL/well of CSPD/Saphire-II RTU substrate/enhancer solution was added and incubated for 45 min @ RT (shake). Signal for 1 sec/well in a Luminometer.

[5] = target: T3, hNPY2R; experiment: CaFlux Assay (FLIPR), Y2R; set-up: expressed in transfected cells; host or cells: HEK-293 stably expressing G protein chimera Gaqi9
Method: Hek-293 cells were stably transfected with the G protein chimera Gaqi9 and the hygromycin-B resistance gene were further transfected with the human NPY2 receptor and G418 antibiotic selection. Following selection in both hygromycin-B and G418, individual clones were assayed for their response to PYY. The transfected cells were cultured in DMEM medium supplemented with 10% fetal bovine serum, 50 μg/mL hygromycin-B 2 mM glutamine, 100 U/mL penicillin, 100 μg/mL streptomycin and 250 μg/mL G418. Cells are harvested with trypsin-EDTA and counted using ViaCount reagent. The cell suspension volume is adjusted to 4.8×10^5 cells/mL with complete growth media. Aliquots of 25 μL are dispensed into 384 well Poly-D Lysine coated black/clear microplates (Falcon) and the microplates were placed in a 37° C. CO2 incubator overnight. Loading Buffer (Calcium-3 Assay Kit, Molecular Devices) was prepared by dissolving the contents of one vial (Express Kit) into 1000 mL Hank's Balanced Salt Solution containing 20 mM HEPES and 5 mM probenecid. Aliquots of 25 μL of diluted dye were dispensed into the cell plates and the plates are then incubated for 1 hour at 37° C. During the incubation, test compounds were prepared at 3.5× the desired concentration in HBSS (20 mM HEPES)/0.05% BSA/1% DMSO and transferred to a 384 well plate for use on FLIPR. After incubation, both the cell and compound plates were brought to the FLIPR and 20 μL of the diluted compounds were transferred to the cell plates by the FLIPR. During the assay, fluorescence readings were taken simultaneously from all 384 wells of the cell plate every 1.5 seconds. Five readings were taken to establish a stable baseline, and then 20 μL of sample was rapidly (30 μL/sec) and simultaneously added to each well of the cell plate. The fluorescence was continuously monitored before, during and after sample addition for a total elapsed time of 100 seconds. Responses (increase in peak fluorescence) in each well following addition were determined. The initial fluorescence reading from each well, prior to ligand stimulation, was used as a zero baseline value for the data from that well. The responses are expressed as % of maximal response of the positive control.

Y4R, sequence (P50391 whole entry): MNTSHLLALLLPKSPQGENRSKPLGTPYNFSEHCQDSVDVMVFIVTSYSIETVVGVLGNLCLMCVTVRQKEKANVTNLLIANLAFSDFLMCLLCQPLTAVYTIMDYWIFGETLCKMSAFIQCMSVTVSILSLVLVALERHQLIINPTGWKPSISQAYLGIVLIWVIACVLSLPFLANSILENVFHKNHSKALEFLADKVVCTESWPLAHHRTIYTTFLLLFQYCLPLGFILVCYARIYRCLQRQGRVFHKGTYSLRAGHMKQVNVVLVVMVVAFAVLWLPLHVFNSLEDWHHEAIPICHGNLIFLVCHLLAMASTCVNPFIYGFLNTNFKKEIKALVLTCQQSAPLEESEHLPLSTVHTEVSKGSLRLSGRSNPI

| Structure (SMILES) | EC50 [1] [nM] | EC50 [2] [nM] | EC50 [3] [nM] | EC50 [4] [nM] | EC50 [5] [nM] | Emax [3] [%] |
| --- | --- | --- | --- | --- | --- | --- |
| CCCCCCCC(=O)NCCCC[C@H](NC(=O)[C@@H](NC(C)=O)[C@@H](C)CC)C(=O)N1CCN(c2ccc3ncn(CC(=O)N[C@@H](CCCNC(=N)N)C(=O)N[C@@H](Cc4c[nH]cn4)C(=O)N[C@@H](Cc4ccc(O)cc4)C(=O)N[C@@H](CC(C)C)C(=O)N[C@@H](CC(N)=O)C(=O)N[C@@H](Cc4c[nH]c5ccccc45)C(=O)N[C@H](C(=O)N[C@H](C(=O)N[C@@H](CCCNC(=N)N)C(=O)N[C@@H](CCC(N)=O)C(=O)N(C)[C@@H](CCCNC(=N)N)C(=O)N[C@@H](Cc4ccc(O)cc4)C(N)=O)[C@@H](C)O)C(C)C)c(=O)c3c2)CC1 [Example 6] | 5200 | 2470 | 99900 | 1.7 | 1.45 |  |
| CCCCCCCCCCCCCCCCCCCC(=O)NCCOCCOCCOCCOCCC(=O)NCCCC[C@H](NC(=O)[C@@H](N)[C@@H](C)CC)C(=O)N1CCN(c2ccc3ncn(CC(=O)N[C@@H](CCCNC(=N)N)C(=O)N[C@@H](Cc4c[nH]cn4)C(=O)N[C@@H](Cc4ccc(O)cc4)C(=O)N[C@@H](CC(C)C)C(=O)N[C@@H](CC(N)=O)C(=O)N[C@@H](Cc4c[nH]c5ccccc45)C(=O)N[C@H](C(=O)N[C@H](C(=O)N[C@@H](CCCNC(=N)N)C(=O)N[C@@H](CCC(N)=O)C(=O)N(C)[C@@H](CCCNC(=N)N)C(=O)N[C@@H](Cc4ccc(O)cc4)C(N)=O)[C@@H](C)O)C(C)C)c(=O)c3c2)CC1 [Example 33] | > 5000 | > 5000 | 241 | 0.13 | 1.08 | 53 |
| CC[C@H](C)[C@H](N)C(=O)N[C@@H](CCCCNC(=O)CC[C@H](NC(=O)CC[C@H](NC(=O)CCCCCCCCCCCCCCCBr)C(=O)O)C(=O)O)C(=O)N1CCN(c2ccc3ncn(CC(=O)N[C@@H](CCCNC(=N)N)C(=O)N[C@@H](Cc4c[nH]cn4)C(=O)N[C@@H](Cc4ccc(O)cc4)C(=O)N[C@@H](CC(C)C)C(=O)N[C@@H](CC(N)=O)C(=O)N[C@@H](Cc4c[nH]c5ccccc45)C(=O)N[C@H](C(=O)N[C@H](C(=O)N[C@@H](CCCNC(=N)N)C(=O)N[C@@H](CCC(N)=O)C(=O)N(C)[C@@H](CCCNC(=N)N)C(=O)N[C@@H](Cc4ccc(O)cc4)C(N)=O)[C@@H](C)O)C(C)C)c(=O)c3c2)CC1 [Example 27] | > 5000 | > 5000 | 2540 | 0.4 | 0.23 |  |
| CCCCCCCCCCCCCCCC(=O)NCCOCCOCCOCCC(=O)NCCCC[C@H](NC(=O)[C@@H](N)[C@@H](C)CC)C(=O)N1CCN(c2ccc3ncn(CC(=O)N[C@@H](CCCNC(=N)N)C(=O)N[C@@H](Cc4c[nH]cn4)C(=O)N[C@@H](Cc4ccc(O)cc4)C(=O)N[C@@H](CC(C)C)C(=O)N[C@@H](CC(N)=O)C(=O)N[C@@H](Cc4c[nH]c5ccccc45)C(=O)N[C@H](C(=O)N[C@H](C(=O)N[C@@H](CCCNC(=N)N)C(=O)N[C@@H](CCC(N)=O)C(=O)N(C)[C@@H](CCCNC(=N)N)C(=O)N[C@@H](Cc4ccc(O)cc4)C(N)=O)[C@@H](C)O)C(C)C)c(=O)c3c2)CC1 [Example 34] | > 5000 | > 5000 | 2340 | 0.1 | 0.003 | 80 |
| CCCCCCCCCCCCCCCCCCCC(=O)NCCOCCOCCOCCC(=O)NCCCC[C@H](NC(=O)[C@@H](N)[C@@H](C)CC)C(=O)N1CCN(c2ccc3ncn(CC(=O)N[C@@H](CCCNC(=N)N)C(=O)N[C@@H](Cc4c[nH]cn4)C(=O)N[C@@H](Cc4ccc(O)cc4)C(=O)N[C@@H](CC(C)C)C(=O)N[C@@H](CC(N)=O)C(=O)N[C@@H](Cc4c[nH]c5ccccc45)C(=O)N[C@H](C(=O)N[C@H](C(=O)N[C@@H](CCCNC(=N)N)C(=O)N[C@@H](CCC(N)=O)C(=O)N(C)[C@@H](CCCNC(=N)N)C(=O)N[C@@H](Cc4ccc(O)cc4)C(N)=O)[C@@H](C)O)C(C)C)c(=O)c3c2)CC1 [Example 35] | > 5000 | > 5000 | 501 | 0.11 | 1.02 | 65 |
